Assay results reported in patent publication US20040138104A1, “Peptides” (priority 2003, published 2004).
Like-named read-outs stand apart in the source and are kept apart here.

Experiments:
PTB1B = target: T1, PTB1B (Homo sapiens, UniProt P18031); assay type: biochemical; details: read-out: IC50 Values in μM Against Various Enzymes: PTB1B
T1 sequence (P18031 1-435): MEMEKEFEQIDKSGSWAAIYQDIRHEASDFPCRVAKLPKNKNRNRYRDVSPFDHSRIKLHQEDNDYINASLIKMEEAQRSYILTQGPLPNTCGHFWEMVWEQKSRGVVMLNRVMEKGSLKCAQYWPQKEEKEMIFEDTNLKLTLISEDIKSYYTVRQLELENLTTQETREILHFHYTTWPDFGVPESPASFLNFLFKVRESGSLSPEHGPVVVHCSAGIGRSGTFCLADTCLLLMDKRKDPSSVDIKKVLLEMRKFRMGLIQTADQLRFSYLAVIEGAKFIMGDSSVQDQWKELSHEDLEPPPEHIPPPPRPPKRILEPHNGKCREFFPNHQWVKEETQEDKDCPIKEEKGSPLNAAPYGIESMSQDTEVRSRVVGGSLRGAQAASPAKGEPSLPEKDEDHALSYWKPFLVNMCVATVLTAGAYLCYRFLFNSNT

YopH = YopH (Yersinia pestis, UniProt O68720); assay: biochemical
[1] = read-out: IC50 Values in μM Against Various Enzymes: YopH

Sequence of YopH (O68720 1-468): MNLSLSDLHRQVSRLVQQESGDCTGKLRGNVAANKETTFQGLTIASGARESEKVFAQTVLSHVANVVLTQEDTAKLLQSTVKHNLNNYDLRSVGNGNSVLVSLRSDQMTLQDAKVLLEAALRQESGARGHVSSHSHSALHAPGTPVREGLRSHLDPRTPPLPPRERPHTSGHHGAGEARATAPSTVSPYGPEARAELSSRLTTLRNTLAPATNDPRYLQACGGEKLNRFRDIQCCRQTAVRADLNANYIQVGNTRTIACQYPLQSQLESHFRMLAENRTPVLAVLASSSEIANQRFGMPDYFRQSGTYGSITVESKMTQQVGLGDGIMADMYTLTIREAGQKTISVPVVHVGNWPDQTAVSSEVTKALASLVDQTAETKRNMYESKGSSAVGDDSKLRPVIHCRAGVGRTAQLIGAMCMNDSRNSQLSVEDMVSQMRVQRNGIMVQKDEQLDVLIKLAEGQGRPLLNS

Row | SMILES | IC50 (PTB1B) | IC50 (YopH; [1]) | IC50 (YopH)
1 | CC(C)C[C@H](NC(=O)[C@H](Cc1ccc(OCC(=O)O)cc1)NC(=O)[C@H](CCC(=O)OCc1ccccc1)NC(=O)OCC1c2ccccc2-c2ccccc21)C(N)=O [TB 26] | 4.6 ± 2 µM | 2.8 ± 1.1 µM | –
2 | CC(C)C[C@H](NC(=O)[C@H](Cc1ccc(OCC(=O)O)c(OCC(=O)O)c1)NC(=O)[C@H](CCC(=O)OCc1ccccc1)NC(=O)OCC1c2ccccc2-c2ccccc21)C(N)=O [TB 29] | 19.4 ± 3.6 µM | 19.4 ± 3.3 µM | –
3 | CC(C)C[C@H](NC(=O)[C@H](Cc1ccc(C(F)(C(=O)O)C(=O)O)cc1)NC(=O)[C@H](CCC(=O)OCc1ccccc1)NC(=O)OCC1c2ccccc2-c2ccccc21)C(N)=O [TB 34] | – | – | 3 ± 0.7 µM
4 | CC(C)C[C@H](NC(=O)[C@H](Cc1ccc(OCC(=O)O)cc1)NC(=O)[C@H](CCC(=O)OCc1ccccc1)NC(=O)OCc1ccccc1)C(N)=O [TB 39] | 72 ± 14 µM | 119 ± 14 µM | –
5 | CC(C)C[C@H](NC(=O)[C@H](Cc1ccc(OCC(=O)O)cc1)NC(=O)[C@H](CCC(=O)OCc1ccccc1)NC(=O)OCCc1ccccc1)C(N)=O [TB 40] | – | – | 80 ± 8.5 µM
